From patent publication US8722849B2, “Polypeptides” (Novo Nordisk A/S, priority 2011, dated 2014)
Converted amounts (≈) assume the structure as drawn. Read-outs that look alike come from different tables or passages of the source. Starred links: 1 amine or outer side, 2 acyl side, 3 side chain; linkers in the order of their positions; H or OH if unused. Positions of bridges follow the written chain, without caps; N, C: chain ends. Residues, ends and D or L forms follow the SMILES beside them. *: point of attachment. C20 diacid = O=C(O)CCCCCCCCCCCCCCCCCCC(=O)*; γGlu = O=C(O)[C@H](CCC(=O)[*:2])N[*:1]; AEEA = NCCOCCOCC(=O)O

What was measured:
[1] = Assay (IV) determination of solubility; type: physicochemical
In short: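 Stock ~500 nmol/ml in water; 1:1 with 100 mM buffer, pH 3.0–8.0 (glycylglycine ≤5.0, bistrispropane ≥6.0); 18 h RT; spin; HPLC quantitation of soluble polypeptide.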

[2] = target: T1, human calcitonin receptor (Homo sapiens, UniProt P30988); assay: Assay (II)a functional CRE-luciferase assay, human calcitonin receptor; type: cell-based
T1 construct: expressed in transfected cells; host or cells: BHK570
T1 sequence (P30988 25-474): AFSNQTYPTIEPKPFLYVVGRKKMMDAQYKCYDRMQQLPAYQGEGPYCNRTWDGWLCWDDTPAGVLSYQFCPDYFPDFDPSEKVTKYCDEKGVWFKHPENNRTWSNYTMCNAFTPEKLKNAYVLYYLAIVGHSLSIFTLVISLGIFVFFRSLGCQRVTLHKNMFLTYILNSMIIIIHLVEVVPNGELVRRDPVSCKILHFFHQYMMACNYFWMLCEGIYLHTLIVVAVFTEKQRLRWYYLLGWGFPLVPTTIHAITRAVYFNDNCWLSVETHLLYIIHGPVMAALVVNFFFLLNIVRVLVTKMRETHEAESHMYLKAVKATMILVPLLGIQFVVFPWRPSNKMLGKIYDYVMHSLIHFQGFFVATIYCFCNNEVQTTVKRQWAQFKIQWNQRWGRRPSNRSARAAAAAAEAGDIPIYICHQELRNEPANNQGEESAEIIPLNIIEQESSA

[3] = target: T2, human amylin receptor (amylin 3(a) receptor: human calcitonin receptor + RAMP-3) (Homo sapiens, UniProt O60896+P30988); assay: Assay (II)a functional CRE-luciferase assay, human amylin receptor; type: cell-based
T2 construct: expressed in transfected cells; host or cells: BHK570
T2 sequence (P30988 25-474): T1 sequence (P30988 25-474)
T2 sequence (O60896 24-148 partner): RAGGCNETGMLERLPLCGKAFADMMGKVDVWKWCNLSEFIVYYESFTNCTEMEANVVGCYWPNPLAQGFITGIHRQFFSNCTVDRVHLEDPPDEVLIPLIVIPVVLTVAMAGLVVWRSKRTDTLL

[4] = bistrispropane buffer, pH 6, pH 6.0, read-out: Solubility pH 6.0
[5] = bistrispropane buffer, pH 6.5, pH 6.5, read-out: Solubility pH 6.5
[6] = bistrispropane buffer, pH 7, pH 7.0, read-out: Solubility pH 7.0
[7] = bistrispropane buffer, pH 7.5, pH 7.5, read-out: Solubility pH 7.5
[8] = bistrispropane buffer, pH 8, pH 8.0, read-out: Solubility pH 8.0
[9] = glycylglycine buffer, pH 3, pH 3.0, read-out: Solubility pH 3.0
[10] = glycylglycine buffer, pH 4, pH 4.0, read-out: Solubility pH 4.0
[11] = glycylglycine buffer, pH 5, pH 5.0, read-out: Solubility pH 5.0
[12] = Table 7, human calcitonin (CTa) receptor
[13] = Table 2, BHK amylin 3(a)-receptor/CRE-luc cells
[14] = Table 3, BHK amylin 3(a)-receptor/CRE-luc cells
[15] = bistrispropane buffer, pH 7, pH 7.0, 18 hours at room temperature, Table 3, read-out: Solubility pH 7.0

Row | solubility at 18 h [1, 4] | solubility at 18 h [1, 5] | solubility at 18 h [1, 6] | solubility at 18 h [1, 7] | solubility at 18 h [1, 8] | solubility at 18 h [1, 9] | solubility at 18 h [1, 10] | solubility at 18 h [1, 11] | EC50 [2, 12] | EC50 ([3]; Table 6, human amylin receptor) | EC50 [3, 13] | EC50 [3, 14] | solubility at 18 h [1, 15] | Structure (SMILES) | also measured
1 | 1 µM (≈ 4.5 µg/mL) | 1 µM (≈ 4.5 µg/mL) | 1 µM (≈ 4.5 µg/mL) | 1 µM (≈ 4.5 µg/mL) | 3 µM (≈ 13.5 µg/mL) | 178 µM (≈ 800 µg/mL) | 93 µM (≈ 418 µg/mL) | 2 µM (≈ 8.99 µg/mL) | 0.279 nM | 0.127 nM |  |  |  | CC(C)C[C@H](NC(=O)[C@H](CCCNC(=N)N)NC(=O)[C@H](CCC(N)=O)NC(=O)[C@@H](NC(=O)[C@H](C)NC(=O)[C@@H]1CSSC[C@H](NC(=O)[C@H](Cc2c[nH]cn2)NC(=O)CC[C@H](NC(=O)CCCCCCCCCCCCCCCCCCC(=O)O)C(=O)O)C(=O)N[C@@H](CC(N)=O)C(=O)N[C@@H]([C@@H](C)O)C(=O)N[C@@H](C)C(=O)N[C@@H]([C@@H](C)O)C(=O)N1)[C@@H](C)O)C(=O)N[C@@H](C)C(=O)N[C@@H](CCC(=O)O)C(=O)N[C@@H](Cc1ccccc1)C(=O)N[C@@H](CC(C)C)C(=O)N[C@@H](Cc1c[nH]cn1)C(=O)N[C@@H](CCCNC(=N)N)C(=O)N[C@@H](CO)C(=O)N[C@@H](CO)C(=O)N[C@@H](CC(N)=O)C(=O)N[C@@H](CCC(=O)O)C(=O)N[C@@H](Cc1ccccc1)C(=O)NCC(=O)N[C@@H](C)C(=O)N[C@@H](CCCNC(=N)N)C(=O)N[C@@H](CC(C)C)C(=O)N[C@@H](CO)C(=O)N[C@@H](CO)C(=O)N[C@H](C(=O)N[C@@H](CC(N)=O)C(=O)N[C@H](C(=O)NCC(=O)N[C@@H](CO)C(=O)N[C@@H](CC(N)=O)C(=O)N[C@H](C(=O)N[C@@H](Cc1ccc(O)cc1)C(N)=O)[C@@H](C)O)C(C)C)[C@@H](C)O [Example 8, N-alpha-[(S)-4-Carboxy-4-(19-carboxynonadecanoylamino)butyryl]-[His1,Glu14,His17,Arg18,Glu22,Ala25,Arg26,Ser28,Ser29]-pramlintide] ({C20 diacid-γGlu}-HCNTATCATQRLAEFLHRSSNEFGARLSSTNVGSNTY-NH2; disulfide 2-7 (inferred)) | 
2 |  |  |  |  |  |  |  |  | 0.672 nM | 0.334 nM | 0.334 nM | 0.334 nM |  | CC[C@H](C)[C@H](NC(=O)[C@@H]1CCCN1C(=O)CNC(=O)[C@H](Cc1ccccc1)NC(=O)[C@H](CC(N)=O)NC(=O)[C@H](CC(N)=O)NC(=O)[C@H](CO)NC(=O)[C@H](CO)NC(=O)[C@H](Cc1c[nH]cn1)NC(=O)[C@H](Cc1c[nH]cn1)NC(=O)[C@H](CC(C)C)NC(=O)[C@H](Cc1ccccc1)NC(=O)[C@H](CCC(=O)O)NC(=O)[C@H](C)NC(=O)[C@H](CC(C)C)NC(=O)[C@H](CCCNC(=N)N)NC(=O)[C@H](CCC(N)=O)NC(=O)[C@@H](NC(=O)[C@H](C)NC(=O)[C@@H]1CSSC[C@H](NC(=O)COCCOCCNC(=O)COCCOCCNC(=O)CC[C@H](NC(=O)CCCCCCCCCCCCCCCCCCC(=O)O)C(=O)O)C(=O)N[C@@H](CC(N)=O)C(=O)N[C@@H]([C@@H](C)O)C(=O)N[C@@H](C)C(=O)N[C@@H]([C@@H](C)O)C(=O)N1)[C@@H](C)O)C(=O)N[C@@H](CC(C)C)C(=O)N1CCC[C@H]1C(=O)N1CCC[C@H]1C(=O)N[C@H](C(=O)N[C@@H](CC(N)=O)C(=O)N[C@H](C(=O)NCC(=O)N[C@@H](CO)C(=O)N[C@@H](CC(N)=O)C(=O)N[C@H](C(=O)N[C@@H](Cc1ccc(O)cc1)C(N)=O)[C@@H](C)O)C(C)C)[C@@H](C)O [Example 43, N-alpha-[2-(2-{2-[2-(2-{2-[(S)-4-Carboxy-4-(19-carboxyheptadecanoylamino)butyrylamino]ethoxy}ethoxy)acetylamino]ethoxy}ethoxy)acetyl]-[des1,Glu14,His17]-pramlintide] ({C20 diacid-γGlu-AEEA-AEEA}-CNTATCATQRLAEFLHHSSNNFGPILPPTNVGSNTY-NH2; disulfide 1-6) | solubility ([1]; pH 3, pH 3.0, read-out: Solubility pH 3.0): > 200 µM; solubility ([1]; pH 4, pH 4.0, 18 hours at room temperature, Table 2, read-out: Solubility pH 4.0): > 200 µM; solubility ([1]; pH 4, pH 4.0, read-out: Solubility pH 4.0): > 200 µM; solubility ([1]; pH 5, pH 5.0, read-out: Solubility pH 5.0): 194 µM (≈ 896 µg/mL); solubility ([1]; pH 6, pH 6.0, read-out: Solubility pH 6.0): 176 µM (≈ 813 µg/mL); solubility ([1]; pH 6.5, pH 6.5, read-out: Solubility pH 6.5): 195 µM (≈ 901 µg/mL); solubility ([1]; pH 7, pH 7.0, 18 hours at room temperature, Table 3, read-out: Solubility pH 7.0): > 200 µM; solubility ([1]; pH 7, pH 7.0, read-out: Solubility pH 7.0): > 200 µM; solubility ([1]; pH 7.5, pH 7.5, read-out: Solubility pH 7.5): > 200 µM; solubility ([1]; pH 8, pH 8.0, read-out: Solubility pH 8.0): > 200 µM; EC50 ([2]; Table 11, read-out: CTa receptor human EC50): 0.672 nM; EC50 ([3]; Table 4): 0.334 nM; EC50 ([3]; Table 7, human amylin receptor): 0.334 nM; EC50 ([3]; Table 11): 0.334 nM
3 | 34 µM (≈ 150 µg/mL) | 12 µM (≈ 52.8 µg/mL) | 104 µM (≈ 458 µg/mL) | 122 µM (≈ 537 µg/mL) | 129 µM (≈ 568 µg/mL) | 179 µM (≈ 788 µg/mL) | 80 µM (≈ 352 µg/mL) | 1 µM (≈ 4.4 µg/mL) | 0.198 nM |  |  | 0.313 nM | 104 µM (≈ 458 µg/mL) | CC[C@H](C)[C@H](NC(=O)[C@@H]1CCCN1C(=O)CNC(=O)[C@H](Cc1ccccc1)NC(=O)[C@H](CO)NC(=O)[C@H](CO)NC(=O)[C@H](CO)NC(=O)[C@H](CO)NC(=O)[C@H](CCCNC(=N)N)NC(=O)[C@H](Cc1c[nH]cn1)NC(=O)[C@H](CC(C)C)NC(=O)[C@H](Cc1ccccc1)NC(=O)[C@H](CCC(=O)O)NC(=O)[C@H](C)NC(=O)[C@H](CC(C)C)NC(=O)[C@H](CCCNC(=N)N)NC(=O)[C@H](CCC(N)=O)NC(=O)[C@@H](NC(=O)[C@H](C)NC(=O)[C@@H]1CSSC[C@H](NC(=O)[C@H](Cc2c[nH]cn2)NC(=O)CC[C@H](NC(=O)CCCCCCCCCCCCCCCCCCC(=O)O)C(=O)O)C(=O)NCC(=O)N[C@@H]([C@@H](C)O)C(=O)N[C@@H](C)C(=O)N[C@@H]([C@@H](C)O)C(=O)N1)[C@@H](C)O)C(=O)N[C@@H](CC(C)C)C(=O)N1CCC[C@H]1C(=O)N1CCC[C@H]1C(=O)N[C@H](C(=O)N[C@@H](CCC(=O)O)C(=O)N[C@H](C(=O)NCC(=O)N[C@@H](CO)C(=O)N[C@@H](CCC(=O)O)C(=O)N[C@H](C(=O)N[C@@H](Cc1ccc(O)cc1)C(N)=O)[C@@H](C)O)C(C)C)[C@@H](C)O [Example 16, N-alpha-[(S)-4-Carboxy-4-(19-carboxynonadecanoylamino)butyryl]-[His1,Gly3,Glu14,His17,Arg18,Ser21,Ser22,Glu31,Glu35]-pramlintide] ({C20 diacid-γGlu}-HCGTATCATQRLAEFLHRSSSSFGPILPPTEVGSETY-NH2; disulfide 2-7 (inferred)) | 
4 | > 200 µM | > 200 µM | > 200 µM | > 200 µM | > 200 µM | > 200 µM | > 200 µM | 107 µM (≈ 477 µg/mL) | 0.657 nM |  | 0.377 nM |  | > 200 µM | CC[C@H](C)[C@H](NC(=O)[C@@H]1CCCN1C(=O)CNC(=O)[C@H](Cc1ccccc1)NC(=O)[C@H](CC(N)=O)NC(=O)[C@H](CC(N)=O)NC(=O)[C@H](CO)NC(=O)[C@H](CO)NC(=O)[C@H](Cc1cnc[nH]1)NC(=O)[C@H](Cc1cnc[nH]1)NC(=O)[C@H](CC(C)C)NC(=O)[C@H](Cc1ccccc1)NC(=O)[C@H](CCC(=O)O)NC(=O)[C@H](C)NC(=O)[C@H](CC(C)C)NC(=O)[C@H](CCCNC(=N)N)NC(=O)[C@H](CCC(N)=O)NC(=O)[C@@H](NC(=O)[C@H](C)NC(=O)[C@@H]1CSSC[C@H](NC(=O)[C@H](CCC(=O)O)NC(=O)CC[C@H](NC(=O)CCCCCCCCCCCCCCCCCCC(=O)O)C(=O)O)C(=O)N[C@@H](CC(N)=O)C(=O)N[C@@H]([C@@H](C)O)C(=O)N[C@@H](C)C(=O)N[C@@H]([C@@H](C)O)C(=O)N1)[C@@H](C)O)C(=O)N[C@@H](CC(C)C)C(=O)N1CCC[C@H]1C(=O)N1CCC[C@H]1C(=O)N[C@H](C(=O)N[C@@H](CC(N)=O)C(=O)N[C@H](C(=O)NCC(=O)N[C@@H](CO)C(=O)N[C@@H](CC(N)=O)C(=O)N[C@H](C(=O)N[C@@H](Cc1ccc(O)cc1)C(N)=O)[C@@H](C)O)C(C)C)[C@@H](C)O [Example 29, N-alpha-[(S)-4-Carboxy-4-(19-carboxynonadecanoylamino)butyryl]-[Glu1,Glu14,His17]-pramlintide] ({C20 diacid-γGlu}-ECNTATCATQRLAEFLHHSSNNFGPILPPTNVGSNTY-NH2; disulfide 2-7) | solubility at 18 h ([1]; glycylglycine buffer, pH 4, pH 4.0, 18 hours at room temperature, Table 2, read-out: Solubility pH 4.0): > 200 µM
